According to ChEMBL document CHEMBL5523759, “Discovery of Novel HDAC3 Inhibitors with PD-L1 Downregulating/Degrading and Antitumor Immune Effects” (J Med Chem, 2024):
In brackets after ≈: the same amount, converted by molar mass. Activity calls are given as the source filed them. No cut-off for these calls is given here.

Legend:
HepG2 = assay: Antiproliferative activity against human HepG2 cells assessed as reduction in cell viability measured for 48 hrs by MTT assay; assay type: functional, cell-based; settings: HepG2, 48 h
[1] = target: T1, Protein deacetylase HDAC6 (Mus musculus) (UniProt Q9Z2V5); assay: Inhibition of HDAC6 in mouse B16-F10 cells assessed as effect on acetylated alpha-tubulin level at 1 to 2 uM measured for 24 hrs by Western blot analysis; assay type: cell-based; settings: dose 1-2 µM
T1 sequence (whole entry): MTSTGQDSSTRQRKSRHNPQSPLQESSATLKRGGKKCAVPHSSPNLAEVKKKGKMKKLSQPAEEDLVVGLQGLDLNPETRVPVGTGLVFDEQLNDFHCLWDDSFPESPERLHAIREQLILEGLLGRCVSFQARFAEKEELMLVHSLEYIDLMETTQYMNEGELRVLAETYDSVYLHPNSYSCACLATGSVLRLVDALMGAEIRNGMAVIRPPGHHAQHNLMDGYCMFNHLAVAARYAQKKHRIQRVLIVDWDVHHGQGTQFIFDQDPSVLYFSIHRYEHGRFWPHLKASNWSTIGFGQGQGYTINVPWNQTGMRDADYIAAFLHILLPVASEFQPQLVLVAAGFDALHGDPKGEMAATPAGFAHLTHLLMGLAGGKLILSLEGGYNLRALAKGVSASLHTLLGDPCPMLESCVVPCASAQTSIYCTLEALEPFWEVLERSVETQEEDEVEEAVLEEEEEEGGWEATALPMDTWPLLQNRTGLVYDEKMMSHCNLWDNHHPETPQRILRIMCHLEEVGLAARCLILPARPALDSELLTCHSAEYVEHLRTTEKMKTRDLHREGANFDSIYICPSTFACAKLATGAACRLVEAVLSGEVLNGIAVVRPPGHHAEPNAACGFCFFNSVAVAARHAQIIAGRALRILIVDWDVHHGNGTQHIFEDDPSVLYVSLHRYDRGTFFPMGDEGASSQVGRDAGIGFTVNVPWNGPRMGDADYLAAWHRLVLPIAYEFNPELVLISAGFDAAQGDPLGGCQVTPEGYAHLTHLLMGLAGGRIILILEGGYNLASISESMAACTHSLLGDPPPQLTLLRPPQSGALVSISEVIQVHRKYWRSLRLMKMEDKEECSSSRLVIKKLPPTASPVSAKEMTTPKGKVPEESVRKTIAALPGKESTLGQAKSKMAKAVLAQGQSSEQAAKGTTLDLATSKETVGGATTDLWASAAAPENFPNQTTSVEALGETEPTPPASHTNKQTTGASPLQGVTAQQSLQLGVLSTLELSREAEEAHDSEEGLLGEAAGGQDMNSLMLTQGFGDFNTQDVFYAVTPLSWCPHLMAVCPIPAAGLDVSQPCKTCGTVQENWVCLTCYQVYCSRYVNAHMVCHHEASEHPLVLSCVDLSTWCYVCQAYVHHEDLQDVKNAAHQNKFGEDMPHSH

B16-F10 [2] = assay: Induction of apoptosis in mouse B16-F10 cells at 4 uM measured for 48 hrs by Annexin-V/FITC staining based flow cytometry analysis relative to control; assay type: functional
Histone deacetylase 8 = target: T2, Histone deacetylase 8 (Homo sapiens, UniProt Q9BY41); assay: Inhibition of human recombinant HDAC8 using Ac-Leu-Gly-Lys (Tfa)-AMC as substrate preincubated with compound for 10 mins followed by substrate addition and measured after 45 mins by TECAN microtiter plate reader analysis
T2 sequence (Q9BY41 whole entry): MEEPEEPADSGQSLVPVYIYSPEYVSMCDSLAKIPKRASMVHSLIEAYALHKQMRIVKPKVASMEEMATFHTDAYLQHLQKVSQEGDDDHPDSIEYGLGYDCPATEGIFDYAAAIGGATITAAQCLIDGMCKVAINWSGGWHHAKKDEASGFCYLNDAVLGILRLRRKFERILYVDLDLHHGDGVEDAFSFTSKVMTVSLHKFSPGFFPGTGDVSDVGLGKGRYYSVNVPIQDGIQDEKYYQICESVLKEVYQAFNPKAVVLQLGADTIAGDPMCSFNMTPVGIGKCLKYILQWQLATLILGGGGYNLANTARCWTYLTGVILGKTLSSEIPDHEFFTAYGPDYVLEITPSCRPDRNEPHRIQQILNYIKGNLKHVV

Jurkat = assay: Antiproliferative activity against human Jurkat T cells assessed as reduction in cell viability measured for 48 hrs by CCK-8 assay; assay type: functional, cell-based
B16-F10 [3] = assay: Induction of apoptosis in mouse B16-F10 cells at 1 uM measured for 48 hrs by Annexin-V/FITC staining based flow cytometry analysis relative to control; assay type: functional
B16-F10 [4] = assay: Induction of cell cycle arrest in mouse B16-F10 cells assessed as accumulation of cells at G2/M phase measured for 48 hrs by flow cytometry analysis; assay type: functional, cell-based; settings: dose 0.5-4 µM
B16-F10 [5] = assay: Induction of apoptosis in mouse B16-F10 cells at 0.5 uM measured for 48 hrs by Annexin-V/FITC staining based flow cytometry analysis relative to control; assay type: functional
HCT-116 = assay: cells; settings: Homo sapiens, HCT-116, 48 h
Description: Antiproliferative activity against human HCT-116 cells assessed as reduction in cell viability measured for 48 hrs by MTT assay

[6] = Antiproliferative activity against human MINO cells assessed as reduction in cell viability measured for 48 hrs by MTT assay; assay type: functional, cell-based
B16-F10 [7] = assay: Antiproliferative activity against mouse B16-F10 cells assessed as reduction in cell viability measured for 48 hrs by MTT assay; assay type: functional, cell-based; settings: B16-F10, 48 h
[8] = Aqueous solubility of compound measured for 24 hrs by shake flask based HPLC analysis; assay type: physicochemical; settings: buffer
B16-F10 [9] = assay: Induction of apoptosis in mouse B16-F10 cells at 2 uM measured for 48 hrs by Annexin-V/FITC staining based flow cytometry analysis relative to control; assay type: functional

Structure (SMILES) | IC50 (HepG2) | inhibition [1] | Activity (B16-F10 [2]) | IC50 (Histone deacetylase 8) | IC50 (Jurkat) | Activity (B16-F10 [3]) | Activity (B16-F10 [4]) | Activity (B16-F10 [5]) | IC50 (HCT-116) | IC50 [6] | IC50 (B16-F10 [7]) | solubility thermodynamic at 24 h [8] | Activity (B16-F10 [9])
Nc1ccccc1NC(=O)c1ccc(-c2ncc(CNc3ccccc3)s2)cc1 | 960 nM | inactive | 20.96% | > 10000 nM | 140 nM | 13.2% | Dose-Dependent Effect | 11% | 1570 nM | 52 nM | 1340 nM | 3.8 µg/mL (≈ 9.49 µM) | 18.77%
CCCNNC(=O)c1ccc(CNC(=O)c2ncc(CNc3ccccc3)s2)cc1 | 240 nM | inactive | 61.25% | > 10000 nM | 90 nM | 31.49% | Dose-Dependent Effect | 21.23% | 430 nM | 30 nM | 1200 nM | 15.6 µg/mL (≈ 36.8 µM) | 61.84%
